The text below walks through data of ChEMBL document CHEMBL5608203, “Design, synthesis and biological evaluation of a new series of imidazothiazole-hydrazone hybrids as dual EGFR and Akt inhibitors for NSCLC therapy” (Eur J Med Chem, 2024).

Bounds are passed on as bounds.

By IC50 is commonly meant the concentration that inhibits the measured activity by half.

The nature of series [1]: Cytotoxicity against human CCD 19Lu cells incubated for 24 hrs by MTT assay. The series is classed as toxicity, cell-based. Background: Formazan colour is commonly taken as a measure of viable cells.
Series [2] relates to A549. The series can be described thus: cells. The settings on record: Homo sapiens, A549, 24 h.
Description: Cytotoxicity against human A549 cells incubated for 24 hrs by MTT assay
For series [3], the system named is A549. The series can be described thus: Induction of apoptosis in human A549 cells assessed as viable cells at IC50 incubated for 24 hrs by Annexin V-FITC/PI staining based flow cytometry (reference value: 96.48 %). The series is classed as functional. For orientation: Flow cytometry measures light scatter and fluorescence of single cells or particles in a stream.

Series [4] concerns A549. Briefly: Induction of apoptosis in human A549 cells assessed as early apoptotic cells at IC50 incubated for 24 hrs by Annexin V-FITC/PI staining based flow cytometry (reference value: 0.11 %). The series is classed as functional.
Series [5] has as its system A549. The series can be described thus: Induction of apoptosis in human A549 cells assessed as late apoptotic cells at IC50 incubated for 24 hrs by Annexin V-FITC/PI staining based flow cytometry (reference value: 1.36 %). The series is classed as functional.
Series [6] has as its system A549. Briefly: Induction of apoptosis in human A549 cells assessed as necrotic cells at IC50 incubated for 24 hrs by Annexin V-FITC/PI staining based flow cytometry (reference value: 2.05 %). It counts as functional.
Series [7] has as its system A549. Briefly: Induction of apoptosis in human A549 cells assessed as caspase-3-positive cells at IC50 incubated for 24 hrs by flow cytometry (reference value: 1.50 %). It counts as functional.
Series [8] deals with A549. The series can be described thus: Induction of apoptosis in human A549 cells assessed as caspase-3-negative cells at IC50 incubated for 24 hrs by flow cytometry (reference value: 98.49 %). The series is classed as functional.
Series [9] relates to A549. Briefly: Induction of cell cycle arrest at G0/G1 phase in human A549 cells at IC50 incubated for 24 hrs by PI staining based flow cytometry (reference value: 9.17 %). The series is classed as functional.
The subject of series [10] is A549. Briefly: Induction of cell cycle arrest at S phase in human A549 cells at IC50 incubated for 24 hrs by PI staining based flow cytometry (reference value: 59.62 %). The series is classed as functional.
Series [11] deals with A549. Briefly: Induction of cell cycle arrest at G2/M phase in human A549 cells at IC50 incubated for 24 hrs by PI staining based flow cytometry (reference value: 14.00 %). It counts as functional.

Take `N#Cc1ccc(-c2cn3c(CC(=O)N/N=C/c4ccc(-n5cncn5)cc4)csc3n2)cc1`: the IC50 at 24 h in [1] is > 500 µM. In the series with A549 [2], this molecule had a half-maximal inhibitory concentration (IC50) of 87.5 µM.

For the molecule `N#Cc1ccc(-c2cn3c(CC(=O)N/N=C/c4ccc(C(F)(F)F)cc4)csc3n2)cc1`, the IC50 in the series on A549 [2] was > 500 µM.

In series [1], `CC(C)(C)c1ccc(/C=N/NC(=O)Cc2csc3nc(-c4ccc(C#N)cc4)cn23)cc1` displayed an IC50 at 24 h of 66.5 µM. The Activity is listed as 79.17% in the series with A549 [3]; 15.38% in the series with A549 [4]; 5.13% in the series with A549 [5]; 0.32% in the series with A549 [6]; 4.14% with A549 [7]; 95.41% with A549 [8]. Besides, the Activity in the series with A549 [9] came to 3.91%; in the series with A549 [10] it was 48.94%; with A549 [11] it was 20.92%. For the same molecule, in the series with A549 [2], inhibition was half-maximal at 22.5 µM (IC50).

For the molecule `N#Cc1ccc(-c2cn3c(CC(=O)N/N=C/c4ccc(N5CCCC5)cc4)csc3n2)cc1`, the IC50 in the series with A549 [2] was > 500 µM.

For the molecule `N#Cc1ccc(-c2cn3c(CC(=O)N/N=C/c4ccc(O)cc4)csc3n2)cc1`, in [1], the half-maximal inhibitory concentration (IC50) at 24 h is > 500 µM. For the same molecule, the Activity in the series with A549 [3] is 92.05%; in the series on A549 [4], 0.03%; in the series with A549 [5] it was 4.03%; in the series on A549 [6], 3.89%; in the series with A549 [7] it was 2.36%; in the series on A549 [8] it was 97.42%. In addition, the Activity worked out at 4.95% with A549 [9], 32.15% in the series with A549 [10] and 26.23% with A549 [11]. In the series on A549 [2], this molecule gave an IC50 of 23.8 µM.

As for `N#Cc1ccc(/C=N/NC(=O)Cc2csc3nc(-c4ccc(C#N)cc4)cn23)cc1`, the 50% inhibitory concentration (IC50) at 24 h in series [1] is > 500 µM. The Activity in the series with A549 [3] came out at 62.71%; with A549 [4], 22.33%; in the series with A549 [5] it was 14.85%; in the series on A549 [6], 0.11%; in the series with A549 [7] it was 34.94%; in the series on A549 [8] it was 63.66%. Also, the results for the Activity in the series on A549 [9], in the series with A549 [10] and in the series on A549 [11] were 13.81%, 43.76% and 12.95%, respectively. In the series with A549 [2], this molecule had an IC50 of 43.7 µM.

Consider `Cc1ccc(/C=N/NC(=O)Cc2csc3nc(-c4ccc(C#N)cc4)cn23)cc1`, for which, in [1], half-maximal inhibition (IC50 at 24 h) was put at 115 µM. Moreover, the Activity stood at 77.37% with A549 [3]; 16.74% in the series on A549 [4]; 5.72% in the series on A549 [5]; 0.17% in the series on A549 [6]; 1.88% in the series on A549 [7]; 97.98% with A549 [8]. The values for the Activity in the series on A549 [9], in the series with A549 [10] and in the series on A549 [11] were 6.54%, 62.99% and 13.74%, respectively. Half-maximal inhibition in the series on A549 [2] (IC50) was put at 17.7 µM.

Take `CC(C)c1ccc(/C=N/NC(=O)Cc2csc3nc(-c4ccc(C#N)cc4)cn23)cc1`: in series [1], the IC50 at 24 h was < 3.9 µM. For the same molecule, in the series with A549 [2], 15.5 µM corresponded to half-maximal inhibition (IC50).

In the case of `N#Cc1ccc(-c2cn3c(CC(=O)N/N=C/c4ccc(Br)cc4)csc3n2)cc1`, the half-inhibitory concentration (IC50) in the series with A549 [2] is > 500 µM.

With `N#Cc1ccc(-c2cn3c(CC(=O)N/N=C/c4ccccc4)csc3n2)cc1`, the IC50 at 24 h in series [1] is > 500 µM. Moreover, the Activity is on record as 87.52% in the series on A549 [3]; 8.7% in the series with A549 [4]; 3.76% in the series with A549 [5]; 0.02% in the series with A549 [6]; 3.97% in the series on A549 [7]; 95.65% in the series with A549 [8]. Also, the Activity with A549 [9] was 7.37%; with A549 [10] it was 38.28%; with A549 [11], 16.14%. The same molecule returned an IC50 in the series on A549 [2] of 51.3 µM.

For the molecule `N#Cc1ccc(-c2cn3c(CC(=O)N/N=C/c4ccc(-c5ccccn5)cc4)csc3n2)cc1`, the IC50 in the series with A549 [2] is > 500 µM.

On to `N#Cc1ccc(-c2cn3c(CC(=O)N/N=C/c4ccc([N+](=O)[O-])cc4)csc3n2)cc1`, for which, in the series on A549 [2], the concentration for half-maximal inhibition (IC50) is > 500 µM.

Consider `N#Cc1ccc(Oc2ccc(/C=N/NC(=O)Cc3csc4nc(-c5ccc(C#N)cc5)cn34)cc2)cc1`, for which, in the series with A549 [2], the IC50 is > 500 µM.

Take `N#Cc1ccc(-c2cn3c(CC(=O)N/N=C/c4ccc5ccccc5c4)csc3n2)cc1`: the IC50 with A549 [2] was > 500 µM.

`N#Cc1ccc(-c2cn3c(CC(=O)N/N=C/c4ccc(-n5ccnc5)cc4)csc3n2)cc1` showed a concentration for half-maximal inhibition (IC50) at 24 h in series [1] of 1.44 µM. The molecule further yielded an IC50 in the series on A549 [2] of 16.9 µM.

For `N#Cc1ccc(-c2cn3c(CC(=O)N/N=C/c4ccc(N5CCCCC5)cc4)csc3n2)cc1`, the IC50 at 24 h in series [1] was > 500 µM. The molecule also showed a half-maximal inhibitory concentration (IC50) with A549 [2] of 221 µM.

Regarding `N#Cc1ccc(-c2cn3c(CC(=O)N/N=C/c4ccc(Oc5ccccc5)cc4)csc3n2)cc1`, in the series on A549 [2], the IC50 was > 500 µM.

For `N#Cc1ccc(-c2cn3c(CC(=O)N/N=C/c4ccc(Cl)cc4)csc3n2)cc1`, the IC50 in the series on A549 [2] was > 500 µM.

As to `CSc1ccc(/C=N/NC(=O)Cc2csc3nc(-c4ccc(C#N)cc4)cn23)cc1`, the IC50 at 24 h in series [1] was > 500 µM. The same molecule came in with an IC50 in the series on A549 [2] of 379 µM.

Molecule `COc1ccc(/C=N/NC(=O)Cc2csc3nc(-c4ccc(C#N)cc4)cn23)cc1` gave a concentration for half-maximal inhibition (IC50) at 24 h in series [1] of 51.7 µM. The Activity is recorded as 73.36% in the series on A549 [3]; 21.98% in the series on A549 [4]; 4.42% in the series with A549 [5]; 0.24% in the series with A549 [6]; 2.58% with A549 [7]; 97.08% in the series on A549 [8]. Further, the Activity with A549 [9] is 5.65%; in the series on A549 [10] it was 68.81%; with A549 [11] it was 10.28%. Also, the IC50 with A549 [2] was 14.3 µM.

In turn, `N#Cc1ccc(-c2cn3c(CC(=O)N/N=C/c4ccc(F)cc4)csc3n2)cc1` registered an IC50 at 24 h in series [1] of 44.4 µM. This molecule also displayed an IC50 in the series on A549 [2] of 101 µM.

With `CS(=O)(=O)c1ccc(/C=N/NC(=O)Cc2csc3nc(-c4ccc(C#N)cc4)cn23)cc1`, in series [1], inhibition was half-maximal at 160 µM (IC50 at 24 h). The 50% inhibitory concentration (IC50) in the series with A549 [2] came out at 133 µM.

`N#Cc1ccc(-c2cn3c(CC(=O)N/N=C/c4ccc(Oc5ccc([N+](=O)[O-])cc5)cc4)csc3n2)cc1`: in the series with A549 [2], the IC50 was > 500 µM.

On to `N#Cc1ccc(-c2cn3c(CC(=O)N/N=C/c4ccc(Oc5ccc(F)cc5)cc4)csc3n2)cc1`, for which the IC50 with A549 [2] is > 500 µM.

`N#Cc1ccc(-c2cn3c(CC(=O)N/N=C/c4ccc(N5CCOCC5)cc4)csc3n2)cc1`: in [1], the midpoint of inhibition, the IC50 at 24 h, lay at 4.9 µM. The same molecule registered an IC50 in the series on A549 [2] of 12.2 µM.

Consider `N#Cc1ccc(-c2cn3c(CC(=O)N/N=C/c4ccc(Oc5ccc(Cl)cc5)cc4)csc3n2)cc1`, for which, in the series on A549 [2], the concentration for half-maximal inhibition (IC50) was > 500 µM.

Take `N#Cc1ccc(-c2cn3c(CC(=O)N/N=C/c4ccc(Oc5ccc(Br)cc5)cc4)csc3n2)cc1`: the concentration for half-maximal inhibition (IC50) in the series on A549 [2] is > 500 µM.

Turning to `C#Cc1cccc(Nc2ncnc3cc(OCCOC)c(OCCOC)cc23)c1` [ERLOTINIB], the Activity in the series on A549 [3] is recorded as 82.76%; with A549 [4], 12.28%; in the series on A549 [5], 4.86%; in the series on A549 [6], 0.09%; in the series on A549 [7], 6.31%; in the series with A549 [8], 93.1%. Besides, the Activity was found to be 12.58% in the series with A549 [9], 54.85% with A549 [10] and 13.45% with A549 [11].

As to `CCn1c(-c2nonc2N)nc2c(C#CC(C)(C)O)ncc(OC[C@H]3CCCNC3)c21` [GSK-690693], the Activity in the series with A549 [3] stood at 36.36%; with A549 [4], 43%; in the series on A549 [5], 18.78%; in the series on A549 [6], 1.86%; in the series on A549 [7], 24.29%; in the series with A549 [8] it was 73.93%. Further, the Activity in the series with A549 [9] is 30.35%; in the series on A549 [10], 27.55%; in the series on A549 [11], 13.5%. The molecule also showed an IC50 with A549 [2] of 11.8 µM.
